Source: US20050154230A1, “Urea derivatives” (Bayer HealthCare AG, priority 2001, published 2005)
pIC50: −log10 of the molar value. Read-outs that look alike come from different tables or passages of the source.

Key:
human VR1 = molecular target: T1, human VR1 (Homo sapiens, UniProt Q8NER1); experiment: Capsaicin-induced Ca2+ influx in the human VR1-transfected CHO cell line (Assay 1); format: cell-based
T1 construct: expressed in transfected cells
Description: [Measurement of Capsaicin-Induced Ca^2+ Influx in the Human VR1-Transfected CHO Cell Line] (Assay 1)
(1) Establishment of the Human VR1-CHOluc9aeq Cell Line
The cloned hVR1 cDNA was constructed with pcDNA3 vector and transfected into a CHOluc9aeq cell line. The cell line contains aequorin and CRE-luciferase reporter genes as read-out signals. The transfectants were cloned by limiting dilution in selection medium (DMEM/F12 medium (Gibco BRL) supplemented with 10% FCS, 1.4 mM Sodium pyruvate, 20 mM HEPES, 0.15% Sodium bicarbonate, 100 U/ml penicillin, 100 μg/ml streptomycin, 2 mM glutamine, non-essential amino acids and 2 mg/ml G418). Ca^2+ influx was examined in the capsaicin-stimulated clones. […] The human VR1-CHOluc9aeq cells were maintained in the selection medium and passaged every 3-4 days at 1-2.5×10^5 cells/flask ([…]).
(2) Measurement of Ca^2+ Influx Using FDSS-3000
Human VR1-CHOluc9aeq cells were suspended in a culture medium which is the same as the selection medium except for G418 and seeded at a density of 1,000 cells per well into 384-well plates (black walled clear-base/Nalge Nunc International). […] After washing twice with assay buffer the cells were incubated with a test compound or vehicle for 20 min at 25° C. […] Integral R was calculated and compared with controls.

[1] = human VR1-CHOluc9aeq cells, 10 nM capsaicin, compound purity about 40 to 90%, read-out: hVR1 class

T1 sequence (Q8NER1 whole entry): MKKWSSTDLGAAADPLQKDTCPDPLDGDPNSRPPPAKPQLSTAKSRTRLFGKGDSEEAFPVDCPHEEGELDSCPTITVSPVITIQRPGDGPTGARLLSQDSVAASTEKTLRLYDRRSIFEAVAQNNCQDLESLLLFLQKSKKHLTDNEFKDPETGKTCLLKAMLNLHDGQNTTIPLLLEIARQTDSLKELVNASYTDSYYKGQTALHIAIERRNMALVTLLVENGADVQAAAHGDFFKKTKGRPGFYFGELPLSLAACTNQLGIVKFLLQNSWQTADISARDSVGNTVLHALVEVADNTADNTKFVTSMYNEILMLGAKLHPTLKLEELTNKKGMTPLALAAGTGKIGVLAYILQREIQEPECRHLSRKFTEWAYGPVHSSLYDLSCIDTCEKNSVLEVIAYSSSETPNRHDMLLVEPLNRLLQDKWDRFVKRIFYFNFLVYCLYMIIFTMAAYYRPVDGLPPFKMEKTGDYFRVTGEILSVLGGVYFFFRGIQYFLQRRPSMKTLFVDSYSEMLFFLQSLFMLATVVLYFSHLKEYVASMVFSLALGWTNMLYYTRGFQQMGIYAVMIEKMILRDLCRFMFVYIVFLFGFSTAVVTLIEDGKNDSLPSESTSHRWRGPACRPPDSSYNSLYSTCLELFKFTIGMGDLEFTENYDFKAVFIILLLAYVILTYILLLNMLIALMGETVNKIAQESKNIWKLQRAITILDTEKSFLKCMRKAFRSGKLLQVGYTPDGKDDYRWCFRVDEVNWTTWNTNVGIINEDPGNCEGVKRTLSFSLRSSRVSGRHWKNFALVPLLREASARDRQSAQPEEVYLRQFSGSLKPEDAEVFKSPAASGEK

Row | pIC50 (human VR1; [1]) | SMILES | further results
1 | 6.00 to 6.30 | COc1cccc(CNC(=O)Nc2ccc(F)cc2)c1 [Example 11] | –
2 | 6.00 to 6.30 | CC(C)(C)c1ccc(C(C)(C)C)c(NC(=O)Nc2ccccc2CCO)c1 [Example 177] | –
3 | 6.00 to 6.30 | COc1cc(CNC(=O)Nc2ccccc2)ccc1O [Example 33] | –
4 | 6.30 to 7.00 | COc1cc(CNC(=O)Nc2ccccc2Cl)ccc1O [Example 79] | –
5 | 6.00 to 6.30 | O=C(NCc1ccc2c(c1)OCO2)Nc1ccccc1 [Example 17] | –
6 | 6.00 to 6.30 | O=C(NCc1cccc(F)c1)Nc1ccc(F)cc1 [Example 48] | –
7 | > 7.00 | CN(C)c1ccc(-c2cccc(NC(=O)Nc3ccccc3CCO)c2)cc1 [Example 170] | –
8 | 6.00 to 6.30 | O=C(Nc1ccc(Cl)c(C(F)(F)F)c1)NC1CCCc2ccc([N+](=O)[O-])cc21 (centres unmarked) [Example 94] | –
9 | 6.00 to 6.30 | COc1ccc(COc2cc(CNC(=O)Nc3ccccc3)ccc2OC)cc1 [Example 6] | –
10 | 6.00 to 6.30 | O=C(Nc1ccccc1CCO)Nc1cccc2cc(O)ccc12 [Example 167] | –
11 | 6.00 to 6.30 | O=C(NCc1cccc(O)c1)Nc1ccc(F)cc1 [Example 31] | –
12 | 6.00 to 6.30 | CSc1cccc(NC(=O)NCc2ccc(F)c(F)c2)c1 [Example 49] | –
13 | 6.00 to 6.30 | CN(C)S(=O)(=O)c1ccc2c(c1)CN(C(=O)Nc1ccc(Oc3ccccc3)cc1)CC2 [Example 88] | –
14 | 6.00 to 6.30 | CNS(=O)(=O)c1ccc2c(c1)CN(C(=O)Nc1ccc(Oc3ccccc3)cc1)CC2 [Example 95] | –
15 | 6.00 to 6.30 | O=C(NCc1cccc(Cl)c1)Nc1ccccc1 [Example 38] | –
16 | > 7.00 | COc1cc(CNC(=O)Nc2cc(C(F)(F)F)ccc2Cl)ccc1O [Example 80] | –
17 | 6.00 to 6.30 | COc1cc2c(cc1OC)CN(C(=O)Nc1cccc(SC)c1)CC2 [Example 20] | –
18 | 6.00 to 6.30 | COc1cccc(NC(=O)NCc2cccc(Cl)c2)c1 [Example 39] | –
19 | 6.00 to 6.30 | O=C(NCc1ccc(F)c(F)c1)Nc1ccccc1 [Example 50] | –

Row | pIC50 (human VR1; [1]) | SMILES | further results
20 | 6.00 to 6.30 | O=C(NCc1ccc(F)c(F)c1)Nc1ccc(F)cc1 [Example 52] | –
21 | 6.00 to 6.30 | O=C(Nc1ccccc1CCO)Nc1c(Cl)cccc1Cl [Example 139] | –
22 | 6.30 to 7.00 | NS(=O)(=O)c1ccc2c(c1)CN(C(=O)Nc1ccc(Cl)c(C(F)(F)F)c1)CC2 [Example 84] | –
23 | 6.00 to 6.30 | COc1cccc(CNC(=O)Nc2ccccc2)c1 [Example 9] | –
24 | 6.00 to 6.30 | O=C(Nc1ccccc1CCO)Nc1ccc(Cl)cc1C(F)(F)F [Example 143] | –
25 | 6.00 to 6.30 | CS(=O)(=O)Nc1ccc2c(c1)CN(C(=O)NCc1ccc(Br)cc1)CC2 [Example 90] | –
26 | 6.00 to 6.30 | COc1cccc(NC(=O)N2CCc3cc(OC)c(OC)cc3C2)c1 [Example 22] | –
27 | 6.30 to 7.00 | O=C(NCc1ccc(Cl)c(Cl)c1)Nc1ccccc1 [Example 42] | –
28 | 6.00 to 6.30 | CSc1cccc(NC(=O)NCc2cccc(Cl)c2)c1 [Example 37] | –
29 | 6.00 to 6.30 | COc1ccc(CNC(=O)Nc2ccccc2)cc1OC [Example 13] | –
30 | 6.00 to 6.30 | COCOc1cccc(CNC(=O)Nc2ccc(F)cc2)c1 [Example 27] | –
31 | > 7.00 | O=C(Nc1cccc(-c2ccc(Cl)cc2)c1)Nc1ccccc1CCO [Example 194] | –
32 | 6.00 to 6.30 | COCOc1cccc(CNC(=O)Nc2ccccc2)c1 [Example 24] | –
33 | 6.00 to 6.30 | O=C(Nc1ccccc1F)Nc1ccccc1CCO [Example 130] | –
34 | 6.00 to 6.30 | COc1cc(CNC(=O)Nc2ccc([N+](=O)[O-])cc2Cl)ccc1O [Example 67] | –
35 | 6.30 to 7.00 | COc1cccc(NC(=O)NCc2ccc(Cl)c(Cl)c2)c1 [Example 43] | –
36 | 6.30 to 7.00 | CS(=O)(=O)Nc1ccc2c(c1)CN(C(=O)Nc1ccc(Cl)c(C(F)(F)F)c1)CC2 [Example 92] | –
37 | 6.00 to 6.30 | COc1ccc(COc2cc(CNC(=O)Nc3ccc(F)cc3)ccc2OC)cc1 [Example 7] | –

More lines, now with the values behind:

Row | SMILES | pIC50 (human VR1; [1]) | further results
38 | COc1cc2c(cc1OC)CN(C(=O)Nc1ccc(F)cc1)CC2 [Example 23] | 6.00 to 6.30 | –
39 | COc1cc(CNC(=O)NCc2ccc(Br)cc2)ccc1O [Example 68] | 6.30 to 7.00 | –
40 | O=C(Nc1ccc(Cl)cc1Cl)Nc1ccccc1CCO [Example 138] | 6.00 to 6.30 | –
41 | O=C(NCc1ccc2c(c1)OCO2)Nc1ccc(F)cc1 [Example 19] | 6.00 to 6.30 | –
42 | CN(C)S(=O)(=O)c1ccc2c(c1)CN(C(=O)Nc1ccc(Cl)c(C(F)(F)F)c1)CC2 [Example 86] | 6.00 to 6.30 | –
43 | COc1cc(CNC(=O)NCCc2ccccc2)ccc1O [Example 77] | 6.30 to 7.00 | –
44 | O=C(Nc1ccccc1CCO)Nc1ccccc1-c1ccccc1 [Example 141] | 6.00 to 6.30 | –
45 | COC(=O)c1ccccc1NC(=O)NCc1ccc(O)c(OC)c1 [Example 61] | 6.00 to 6.30 | –
46 | O=C(Nc1cc(C(F)(F)F)ccc1Cl)Nc1ccccc1CCO [Example 144] | 6.30 to 7.00 | –
47 | CN(C)CCNS(=O)(=O)c1ccc2c(c1)CN(C(=O)Nc1ccc(Cl)c(C(F)(F)F)c1)CC2 [Example 87] | 6.00 to 6.30 | –
48 | CSc1cccc(NC(=O)NCc2cccc(O)c2)c1 [Example 29] | 6.00 to 6.30 | –
49 | O=C(Nc1ccc(Cl)c(C(F)(F)F)c1)NC1CCCc2ccc(O)cc21 (centres unmarked) [Example 54] | – | melting point: 201 °C
50 | COc1ccc(CNC(=O)Nc2cccc(SC)c2)cc1O [Example 35] | 6.00 to 6.30 | –
51 | COCOc1cccc(CNC(=O)Nc2cccc(OC)c2)c1 [Example 25] | 6.00 to 6.30 | –
52 | COc1cccc(NC(=O)Nc2cccc(-c3ccc(Cl)cc3)c2)c1CCO [Example 251] | > 7.00 | –
53 | COc1cc(CNC(=O)Nc2ccccc2F)ccc1O [Example 75] | 6.30 to 7.00 | –
54 | CC(=O)Nc1ccc2c(c1)C(NC(=O)Nc1ccc(Cl)c(C(F)(F)F)c1)CCC2 (centres unmarked) [Example 97] | 6.00 to 6.30 | –
55 | O=C(Nc1cc(Cl)ccc1Cl)Nc1ccccc1CCO [Example 162] | 6.00 to 6.30 | –
56 | O=C(Nc1ccccc1CCO)Nc1cccc(Cl)c1Cl [Example 137] | 6.00 to 6.30 | –
57 | CC(C)c1cccc(C(C)C)c1NC(=O)Nc1ccccc1CCO [Example 142] | 6.00 to 6.30 | –
58 | COc1ccc(CNC(=O)Nc2cccc(SC)c2)cc1OC [Example 12] | 6.00 to 6.30 | –
59 | COCOc1cccc(CNC(=O)Nc2cccc(SC)c2)c1 [Example 26] | 6.00 to 6.30 | –
60 | O=C(NCc1cccc(O)c1)Nc1ccccc1 [Example 28] | 6.00 to 6.30 | –
61 | CS(=O)(=O)Nc1ccc2c(c1)CN(C(=O)Nc1ccc(Oc3ccccc3)cc1)CC2 [Example 91] | 6.00 to 6.30 | –
62 | O=C(Nc1cccc(-c2ccc(F)cc2)c1)Nc1ccccc1CCO [Example 193] | > 7.00 | –
63 | COc1cccc(NC(=O)NCc2cccc(F)c2)c1 [Example 47] | 6.00 to 6.30 | –

Row | SMILES | pIC50 (human VR1; [1]) | further results
64 | O=C(NCc1ccc(Cl)c(Cl)c1)Nc1ccc(F)cc1 [Example 44] | 6.30 to 7.00 | –
65 | COc1cc(CNC(=O)Nc2ccc(Oc3ccccc3)cc2)ccc1O [Example 76] | – | pIC50 (human VR1): > 7.00
66 | CCOC(=O)c1ccc(NC(=O)Nc2ccccc2CCO)cc1 [Example 163] | 6.00 to 6.30 | –
67 | CNS(=O)(=O)c1ccc2c(c1)CN(C(=O)Nc1ccc(Cl)c(C(F)(F)F)c1)CC2 [Example 85] | 6.00 to 6.30 | –
68 | COc1ccc(CNC(=O)Nc2ccccc2)cc1O [Example 36] | 6.00 to 6.30 | –
69 | O=C(Nc1ccc(Oc2ccccc2)cc1)N1CCc2ccc(S(=O)(=O)N3CCN(CCO)CC3)cc2C1 [Example 89] | 6.00 to 6.30 | –
70 | COc1ccc(CNC(=O)Nc2ccc(F)cc2)cc1OC [Example 15] | 6.00 to 6.30 | –
71 | COc1cc(CNC(=O)Nc2cccc(C(C)=O)c2)ccc1O [Example 59] | 6.00 to 6.30 | –
72 | COc1cccc(NC(=O)NCc2ccc(F)c(F)c2)c1 [Example 51] | 6.00 to 6.30 | –
73 | CSc1cccc(NC(=O)NCc2ccc3c(c2)OCO3)c1 [Example 16] | 6.00 to 6.30 | –
74 | COc1cccc(CNC(=O)Nc2cccc(SC)c2)c1 [Example 8] | 6.00 to 6.30 | –
75 | COc1cc2c(cc1O)CN(C(=O)Nc1ccc(Cl)c(C(F)(F)F)c1)CC2 [Example 69] | 6.30 to 7.00 | –
76 | COc1cc2c(cc1OC)CN(C(=O)Nc1ccccc1)CC2 [Example 21] | 6.00 to 6.30 | –
77 | CSc1cccc(NC(=O)NCc2cccc(F)c2)c1 [Example 45] | 6.00 to 6.30 | –
78 | COc1cccc(NC(=O)NCc2ccc3c(c2)OCO3)c1 [Example 18] | 6.00 to 6.30 | –
79 | O=C(NCc1cccc(F)c1)Nc1ccccc1 [Example 46] | 6.00 to 6.30 | –
80 | COc1cc(CNC(=O)Nc2cccc(Cl)c2)ccc1O [Example 81] | > 7.00 | –
81 | O=C(Nc1ccc(-c2ccc([N+](=O)[O-])cc2)cc1)Nc1ccccc1CCO [Example 178] | 6.30 to 7.00 | –
82 | CCOC(=O)c1ccccc1NC(=O)Nc1ccccc1CCO [Example 140] | 6.00 to 6.30 | –
83 | COc1cccc(CNC(=O)Nc2cccc(OC)c2)c1 [Example 10] | 6.00 to 6.30 | –
84 | O=C(NCc1cccc(Cl)c1)Nc1ccc(F)cc1 [Example 40] | 6.00 to 6.30 | –
85 | O=C(Nc1cccc(OC(F)(F)F)c1)Nc1ccccc1CCO [Example 2-2, N-[2-(2-hydroxyethyl)phenyl]-N′-[3(trifluoromethoxy)phenyl]urea] | – | pIC50 (human VR1): > 7.00
86 | COc1cccc(NC(=O)NCc2ccc(OC)c(OC)c2)c1 [Example 14] | 6.00 to 6.30 | –
87 | COc1cc(CNC(=O)Nc2cccc(SC)c2)ccc1O [Example 32] | 6.30 to 7.00 | –
88 | CS(=O)(=O)Nc1ccc2c(c1)CN(C(=O)Nc1ccc(Br)cc1)CC2 [Example 93] | 6.00 to 6.30 | –
89 | COc1cccc(NC(=O)NCc2cccc(O)c2)c1 [Example 30] | 6.00 to 6.30 | –
